One data set has as its system HCV. The data set is described as follows: In vitro anti-HCV assay in HCV RNA-replicating cell line AVA5. Format: cell-based. How it is done: The antiviral activity of test compounds were assayed in the stably HCV RNA-replicating cell line. AVA5, derived by transfection of the human hepatoblastoma cell line, Huh^7 (Blight et al., 2000). Experimental drugs were added to dividing cultures once daily for three days. Media was changed with each addition of compound. Cultures generally started the assays at 50% confluence and reached confluence during the last day of treatment. HCV RNA and cellular β-actin RNA levels were assessed 24 hours after the last dose of compound using dot blot hybridization. Assays were conducted using a single dose of test compound (in triplicate cultures).
Both HCV and β-actin RNA levels in the treated cultures were expressed as a percentage of the mean levels of RNA detected in untreated cultures. β-actin RNA levels were used both as a measure of toxicity, and to normalize the amount of cellular RNA in each sample. A level of 30% or less HCV RNA (relative to control cultures) was considered to be a positive antiviral effect, and a level of 50% or less β-actin RNA (relative to control cultures) is considered to be a cytotoxic effect.
Dividing cultures of AVAB cells were treated once daily for three days (media was changed with each addition of compound) with 4 concentrations of test compounds (3 cultures per concentration). A total of 6 untreated control cultures, and triplicate cultures treated with 10, 3, and 1 IU/ml α-interferon (active antiviral with no cytotoxicity), and 100, 10, and 1 μM ribavir ([…]) served as controls. HCV RNA and cellular β-actin FNA levels were assessed 24 hours after the last dose of compound using dot blot hybridization. β-actin RNA levels were used to normalize the amount of cellular RNA in each sample.
Toxicity analyses were performed on separate plates from those used for the antiviral assays. Cells for the toxicity analyses were cultured and treated with test compounds with the same schedule and under identical culture conditions used for the antiviral evaluations. Each compound was tested at 4 concentrations, each in triplicate cultures. Uptake of neutral red dye was used to determine the relative level of toxicity 24 hours following the last treatment. The absorbance of internalized dye at […] (A510) was used for the quantitative analysis. Values in test cultures were compared to 9 cultures of untreated cells maintained on the same plate as the test cultures.
Assays similar to those described above were conducted.

Another data set relates to West Nile. The data set is described as follows: In vitro antiviral screening (Table 1), West Nile.
Another data set has as its system HSV-1. To be noted: in general 1000-fold less drug than Examples 1-6 and 10.
In a further data set the test system is HSV-2. The conditions noted are these: in general 1000-fold less drug than Examples 1-6 and 10.
The next data set has as its system HSV-1 strain KOS1.1. In kind it is cell-based.
Data set [1] relates to dlsptk (an ACV-resistant, tk deletion mutant of HSV-1). Format: cell-based. To be noted: MOI 10, 20 μM (4.5 μg/ml) ACV or 6.4 mg/ml β-CD for 24 hours.
A further data set concerns Vero cells. The data set can be described thus: Cell viability by LDH release assay. In kind it is cell-based. To be noted: acyclovir 400 μg/ml, 24 and 48 hours, Vero cells. How it is done: FIG. 3 depicts the effects of ACV alone (400 μg/ml) and β-CD alone (8 mg/ml) on the viability of Vero cells as monitored by the LDH release assay after 24 hours of treatments (A); and after 48 hours of treatments (B). All data represents means+SD of two separate experiments.
Cell viability assay. Cell viability was determined fluorometrically by estimating the release of LDH into the media (Moran and Schnellman, 1996). LDH activity was based on the reduction of pyruvate to lactate. The concomitant oxidation of NADH results in a decrease in the fluorescence emission at 450 nm with excitation wavelength 355 nm, and the rate of disappearance of NADH is indicative of LDH activity.
To study the effects of formulations on viability of preformed monolayers, 3 to 4×10^6 Vero cells were added to 1× MEM-5% FBS in T75 flasks. […] Used media were replaced with 15 ml of treatment media, containing 5× MEM-FBS diluted to 1× with water (control), acyclovir stock (400 μg/ml), or β-CD stock (8 mg/ml in water). […]
Reaction solution was made fresh for each experiment by mixing 0.4 ml of 16.2 mM pyruvate with 10 ml of 0.2 mM NADH in phosphate buffer (pH 7.5). […] The amount of LDH calculated for either condition was then compared with and expressed as a percentage of the total LDH present.
Used media were replaced with 15 ml/flask or 2.5 ml/well of treatment media, containing 5× MEM-FBS diluted to 1× with water (control), and […]CD stock. […] Live cells are distinguished by the presence of intracellular esterase activity, as determined by the enzymatic conversion of calcein-AM (nonfluorescent) to calcein (green fluorescence). EthD-1 enters cells with damaged cell membranes and binds to nucleic acids producing red fluorescence to identify dead cells. […] For LDH assays, cells were trypsinized, resuspended in fresh 1× medium, kept at 37° C.-5% CO2 atmosphere, and total LDH present in cells and medium was determined after lysing the cells with 350 μM digitonin. The amount of LDH calculated for either condition was then compared with and expressed as a percentage of the total LDH present. […]

The source of these data is patent US20070219159A1, “CYCLODEXTRIN COMPOSITIONS AND METHODS OF TREATING VIRAL INFECTIONS” (priority 2002, published 2007).

Where two headings read alike, the source gives them in different places.

hydroxypropyl α-cyclodextrin [HPACD]: the “S.I. for HCV” value with HCV is listed as 0.97. Further, the “SI = CC50/EC50” value in the data set with West Nile is on record as 0.
Turning to hydroxypropyl γ-cyclodextrin [HPGCD], the “S.I. for HCV” value in the data set with HCV turned out to be 1.39. For the same compound, the “SI = CC50/EC50, value in parenthesis calculated by DNA hybridization” value with EBV (DNA hybridization) is on record as 6.2. Further, the “SI = CC50/EC50” value with West Nile stood at 0.
Turning to `CC(O)COC[C@H]1O[C@@H]2O[C@H]3[C@H](O)[C@@H](O)[C@@H](O[C@H]4[C@H](O)[C@@H](O)[C@@H](O[C@H]5[C@H](O)[C@@H](O)[C@@H](O[C@H]6[C@H](O)[C@@H](O)[C@@H](O[C@H]7[C@H](O)[C@@H](O)[C@@H](O[C@H]8[C@H](O)[C@@H](O)[C@@H](O[C@H]1[C@H](O)[C@H]2O)O[C@@H]8COCC(C)O)O[C@@H]7COCC(C)O)O[C@@H]6COCC(C)O)O[C@@H]5COCC(C)O)O[C@@H]4COCC(C)O)O[C@@H]3COCC(C)O` (stereo partly drawn) [HPBCD, hydroxypropyl β-cyclodextrin], in the data set with HCV, the “S.I. for HCV” value came to 1.26. Moreover, the “SI = CC50/EC50” value in the data set with HSV-1, with HSV-2, in the data set on VZV, with HCMV, with MCMV and in the data set on HHV-6 was 0 in each case. Besides, the “SI = CC50/EC50” value with HHV-7, in the data set on Flu A, in the data set on Flu B, with RSV, in the data set with PIV and in the data set with MV was 0 throughout. The “SI = CC50/EC50” value with HRV, in the data set with Ad, with Resp syncytial, in the data set with Rhino, in the data set with Vaccinia and with Cowpox was 0 each time. In addition, the “SI = CC50/EC50” value in the data set with Measles, in the data set on VEE, in the data set with Punta Toro, in the data set on Pichinde, in the data set with Yellow fever and in the data set with West Nile was 0 in each case.
Regarding α-interferon, the “approximate EC90” value with HCV (positive antiviral control, no cytotoxicity) is around 10 IU/ml.
For `OC[C@H]1O[C@@H]2O[C@H]3[C@H](O)[C@@H](O)[C@@H](O[C@H]4[C@H](O)[C@@H](O)[C@@H](O[C@H]5[C@H](O)[C@@H](O)[C@@H](O[C@H]6[C@H](O)[C@@H](O)[C@@H](O[C@H]7[C@H](O)[C@@H](O)[C@@H](O[C@H]8[C@H](O)[C@@H](O)[C@@H](O[C@H]9[C@H](O)[C@@H](O)[C@@H](O[C@H]1[C@H](O)[C@H]2O)O[C@@H]9CO)O[C@@H]8CO)O[C@@H]7CO)O[C@@H]6CO)O[C@@H]5CO)O[C@@H]4CO)O[C@@H]3CO` [GCD, γ-cyclodextrin], the “S.I. for HCV” value in the data set with HCV came to 1.04. Besides, the “SI = CC50/EC50” value with HSV-1, in the data set with HSV-2, in the data set with VZV, in the data set on EBV, with HCMV and in the data set with MCMV was 0 each time. In addition, the “SI = CC50/EC50” value in the data set with HHV-6, in the data set on HHV-7, in the data set with Flu A, in the data set with Flu B, with RSV and in the data set with PIV was 0 throughout. The “SI = CC50/EC50” value in the data set with MV, in the data set on HRV, in the data set on Ad, with Resp syncytial, with Rhino and with Vaccinia was 0 throughout. Besides, the “SI = CC50/EC50” value in the data set on Cowpox, in the data set with Measles, with VEE, with Punta Toro, in the data set with Pichinde and with Yellow fever was 0 throughout. Further, the “SI = CC50/EC50” value in the data set on West Nile was 0.
Consider `Nc1nc2c(ncn2COCCO)c(=O)[nH]1` [ACV, acyclovir, reference compound], for which the “reduction of KOS1.1 yield at 24 hours” value in the data set with HSV-1 strain KOS1.1 (4.5 μg/ml ACV, MOI 10, post-infection treatment) is 10^2 fold. Moreover, the “yield of cell-free and cell-associated virus” value with HSV-1 strain KOS1.1 (24 hours post-infection, MOI 50, BCD 7.2 mg/ml, ACV 400 μg/ml or both, pre, during and post infection treatment (FIG. 1)) is on record as “markedly decreased”. Also, the “effect on yield of acyclovir-sensitive HSV KOS1.1 (FIG. 2)” value in the data set on HSV-1 strain KOS1.1 (MOI 10, 20 μM ACV or 6.4 mg/ml β-CD for 24 hours) was “able to lower the yield”. Moreover, the “effect on yield of acyclovir-resistant dlsptk virus (FIG. 2)” value in data set [1] is on record as “no activity”; in data set [1] (listed as acyclovir), “not of the acyclovir -resistant mutant”. In addition, in the data set on Vero cells, the drug-related cell killing result is listed as “no drug-related cell killing”.
